In article PMC4366154, “Easy to Use Plastic Optical Fiber-Based Biosensor for Detection of Butanal” (PLoS ONE, 2015):

Target: T1, porcine odorant-binding protein (pOBP) (Sus scrofa, UniProt P81245)
T1 construct: recombinant in E. coli BL21-DE3 from pGEX2TK as GST fusion, GST cut off on column with thrombin
T1 sequence (P81245 1-157): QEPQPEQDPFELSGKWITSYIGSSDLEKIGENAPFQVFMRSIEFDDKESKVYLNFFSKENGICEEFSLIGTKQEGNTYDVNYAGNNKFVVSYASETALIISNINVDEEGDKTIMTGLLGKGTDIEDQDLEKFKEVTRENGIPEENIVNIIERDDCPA
Experiment: direct fluorescence titration, emission at […] nm
Conditions: 20 mM Tris-HCl pH 7.8, 1.0 μM pOBP, overnight at 4 °C

## Nc1cccc2cc3ccccc3cc12 [1-amino-anthracene]
  direct fluorescence titration, emission at 480 nm: direct titrations using the fluorescent ligand 1-amino-anthracene (AMA)
